According to PubChem BioAssay AID1918949 (Molecular Pharmacology Branch, DTP, NCI, 2023):

Test system: K24384-001-R-PDC complex spheroid viability
Assay: Anticancer human tumor K24384-001-R-PDC patient-derived pancreatic adenocarcinoma cell line growth inhibition
Settings: for IC50: curve of first compound; for viability, T/C: stronger effect = lower value
Summary of the method: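 Multicellular complex spheroids of tumor cells with human endothelial cells (HUVEC) and mesenchymal stem cells; the LSD1 inhibitor iadademstat was combined with standard-of-care or investigational agents. Top concentration at or near clinical Cmax, half-log dilutions; final DMSO ≤0.25%.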

[1] = second compound 0.1 µM, first compound 0.00316 µM
[2] = second compound 0.1 µM, first compound 0.01 µM
[3] = second compound 0.1 µM, first compound 0.0316 µM
[4] = second compound 0.1 µM, first compound 0.1 µM
[5] = second compound 0.316 µM, first compound 0.00316 µM
[6] = second compound 0.316 µM, first compound 0.01 µM
[7] = second compound 0.316 µM, first compound 0.0316 µM
[8] = second compound 0.316 µM, first compound 0.1 µM
[9] = second compound 1 µM, first compound 0.00316 µM
[10] = second compound 1 µM, first compound 0.01 µM
[11] = second compound 1 µM, first compound 0.0316 µM
[12] = second compound 1 µM, first compound 0.1 µM
[13] = second compound 3.16 µM, first compound 0.00316 µM
[14] = second compound 3.16 µM, first compound 0.01 µM
[15] = second compound 3.16 µM, first compound 0.0316 µM
[16] = second compound 3.16 µM, first compound 0.1 µM
[17] = second compound 10 µM, first compound 0.00316 µM
[18] = second compound 10 µM, first compound 0.01 µM
[19] = second compound 10 µM, first compound 0.0316 µM
[20] = second compound 10 µM, first compound 0.1 µM
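Further: spheroids exposed to agents for seven days before luminescence viability reading.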
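Wherever viability, T/C is given: 100% = DMSO vehicle control viability.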

SMILES	IC50 (second compound 0.1 µM) [nM]	IC50 (second compound 0.316 µM) [nM]	IC50 (second compound 1 µM) [nM]	IC50 (second compound 3.16 µM) [nM]	IC50 (second compound 10 µM) [nM]	viability, T/C [1] [%]	viability, T/C [2] [%]	viability, T/C [3] [%]	viability, T/C [4] [%]	viability, T/C [5] [%]	viability, T/C [6] [%]	viability, T/C [7] [%]	viability, T/C [8] [%]	viability, T/C [9] [%]	viability, T/C [10] [%]	viability, T/C [11] [%]	viability, T/C [12] [%]	viability, T/C [13] [%]	viability, T/C [14] [%]	viability, T/C [15] [%]	also measured
Nc1ncn(C2CC(O)C(CO)O2)c(=O)n1 (stereo not given) + NC1CC1c1ccc(-c2cccc(O)c2)cc1	> 1000	> 1000	> 1000	> 1000	> 1000	89.9	86.7	97.5	80.2	78.3	98.4	86.5	85.3	97.8	91.3	84	67.9	88.4	88.4	87.8	viability, T/C (second compound 0.1 µM, first compound 0.316 µM): 70.4%; viability, T/C (second compound 0.1 µM, first compound 1 µM): 79%; viability, T/C (second compound 0.316 µM, first compound 0.316 µM): 78.6%; viability, T/C (second compound 0.316 µM, first compound 1 µM): 68.9%; viability, T/C (second compound 1 µM, first compound 0.316 µM): 72.5%; viability, T/C (second compound 1 µM, first compound 1 µM): 70.6%; viability, T/C [16]: 79.2%; viability, T/C (second compound 3.16 µM, first compound 0.316 µM): 80.1%; viability, T/C (second compound 3.16 µM, first compound 1 µM): 82.6%; viability, T/C [17]: 101%; viability, T/C [18]: 97.2%; viability, T/C [19]: 89.4%; viability, T/C [20]: 90.3%; viability, T/C (second compound 10 µM, first compound 0.316 µM): 77.9%; viability, T/C (second compound 10 µM, first compound 1 µM): 87.7%
Cn1ncnc1C1c2n[nH]c(=O)c3cc(F)cc(c23)NC1c1ccc(F)cc1 (stereo not given) + NC1CC1c1ccc(-c2cccc(O)c2)cc1	> 100	> 100	> 100	> 100	> 100	104	88.4	77.6	77.8	84.4	85.8	93.8	73.3	84.5	94.2	78.3	102	93.6	101	102	viability, T/C (second compound 0.1 µM, first compound 0.000316 µM): 92.8%; viability, T/C (second compound 0.1 µM, first compound 0.001 µM): 121%; viability, T/C (second compound 0.316 µM, first compound 0.000316 µM): 101%; viability, T/C (second compound 0.316 µM, first compound 0.001 µM): 105%; viability, T/C (second compound 1 µM, first compound 0.000316 µM): 108%; viability, T/C (second compound 1 µM, first compound 0.001 µM): 96.7%; viability, T/C (second compound 3.16 µM, first compound 0.000316 µM): 91.7%; viability, T/C (second compound 3.16 µM, first compound 0.001 µM): 96.9%; viability, T/C [16]: 75.8%; viability, T/C (second compound 10 µM, first compound 0.000316 µM): 108%; viability, T/C (second compound 10 µM, first compound 0.001 µM): 111%; viability, T/C [17]: 126%; viability, T/C [18]: 94.9%; viability, T/C [19]: 96%; viability, T/C [20]: 86.5%
